According to patent US9834559B2, “4-Amino-6-phenyl-5,6-dihydroimidazo[1,5-a]pyrazin-3(2H)-one derivatives as inhibitors of beta-secretase (BACE)” (Janssen Pharmaceutica NV, priority 2013, dated 2017):

Key:
[1] = target: recombinant BACE1 protein (Homo sapiens, UniProt P56817); assay: BACE1 biochemical FRET based assay; details: BACE1 0.04 μg/ml, 20 μM substrate, pH 5.0, 450 min; read-out: Biochemical FRET based assay pIC50 (converted)
Source text: (§1) This assay is a Fluorescence Resonance Energy Transfer Assay (FRET) based assay. The substrate for this assay is an APP derived 13 amino acids peptide that contains the ‘Swedish’ Lys-Met/Asn-Leu mutation of the amyloid precursor protein (APP) beta-secretase cleavage site. This substrate also contains two fluorophores: (7-methoxycoumarin-4-yl) acetic acid (Mca) is a fluorescent donor with excitation wavelength at 320 nm and emission at 405 nm and 2,4-Dinitrophenyl (Dnp) is a proprietary quencher acceptor. […] Upon cleavage by BACE1, the fluorophore Mca is separated from the quenching group Dnp, restoring the full fluorescence yield of the donor. The increase in fluorescence is linearly related to the rate of proteolysis.
Briefly in a 384-well format recombinant BACE1 protein in a final concentration of 0.04 μg/ml is incubated for 450 minutes at room temperature with 20 μM substrate in incubation buffer (50 mM Citrate buffer pH 5.0, 0.05% PEG) in the presence of compound or DMSO. Next the amount of proteolysis is directly measured by fluorescence measurement (excitation at 320 nm and emission at 405 nm) at different incubation times (0, 30, 60, 90, 120 and 450 min). For every experiment a time curve (every 30 min between 0 min and 120 min) is used to determine the time where we find the lowest basal signal of the high control. The signal at this time (Tx) is used to subtract from the signal at 450 min. Results are expressed in RFU, as difference between T450 and Tx.
(§2) A best-fit curve is fitted by a minimum sum of squares method to the plot of % Controlmin versus compound concentration. From this an IC50 value (inhibitory concentration causing 50% inhibition of activity) can be obtained. • LC=Median of the low control values • =Low control: Reaction without enzyme • HC=Median of the High control values • =High Control: Reaction with enzyme • % Effect=100−[(sample−LC)/(HC−LC)*100] • % Control=(sample/HC)*100 • % Controlmin=(sample−LC)/(HC−LC)*100

[2] = tested on: Abeta 1-42 produced and secreted by human neuroblastoma SKNBE2 cells expressing hAPP695; assay: Cellular αLisa assay in SKNBE2 cells, Abeta 1-42; assay type: cell-based; details: 18 hours incubation, read-out: Cellular αLisa assay in SKNBE2 cells Abeta 42 pIC50 (converted)
Experimental: (§3) In two αLisa assays the levels of Abeta total and Abeta 1-42 produced and secreted into the medium of human neuroblastoma SKNBE2 cells are quantified. The assay is based on the human neuroblastoma SKNBE2 expressing the wild type Amyloid Precursor Protein (hAPP695). The compounds are diluted and added to these cells, incubated for 18 hours and then measurements of Abeta 1-42 and Abeta total are taken. Abeta total and Abeta 1-42 are measured by sandwich αLisa. αLisa is a sandwich assay using biotinylated antibody AbN/25 attached to streptavidin coated beads and antibody Ab4G8 or cAb42/26 conjugated acceptor beads for the detection of Abeta total and Abeta 1-42 respectively. In the presence of Abeta total or Abeta 1-42, the beads come into close proximity. The excitation of the donor beads provokes the release of singlet oxygen molecules that trigger a cascade of energy transfer in the acceptor beads, resulting in light emission. Light emission is measured after 1 hour incubation (excitation at […] and emission at 615 nm).
as §2, with “cells preincubated” for “Reaction”, “compound, without biotinylated Ab in the αLisa” for “enzyme”, “cells preincubated without compound” for “Reaction with enzyme”

[3] = tested on: Abeta total produced and secreted by human neuroblastoma SKNBE2 cells expressing hAPP695; assay: Cellular αLisa assay in SKNBE2 cells, Abeta total; assay type: cell-based; details: 18 hours incubation, read-out: Cellular αLisa assay in SKNBE2 cells Abetatotal pIC50 (converted)
Experimental: as §3
as §2, with “cells preincubated” for “Reaction”, “compound, without biotinylated Ab in the αLisa” for “enzyme”, “cells preincubated without compound” for “Reaction with enzyme”

[4] = target: T1, recombinant BACE2 protein (Homo sapiens, UniProt Q9Y5Z0); assay: BACE2 biochemical FRET based assay; details: BACE2 0.4 μg/ml, 10 μM substrate, pH 5.0, 450 min; read-out: BACE2 Biochemical FRET based assay pIC50 (converted)
T1 sequence (Q9Y5Z0 63-518): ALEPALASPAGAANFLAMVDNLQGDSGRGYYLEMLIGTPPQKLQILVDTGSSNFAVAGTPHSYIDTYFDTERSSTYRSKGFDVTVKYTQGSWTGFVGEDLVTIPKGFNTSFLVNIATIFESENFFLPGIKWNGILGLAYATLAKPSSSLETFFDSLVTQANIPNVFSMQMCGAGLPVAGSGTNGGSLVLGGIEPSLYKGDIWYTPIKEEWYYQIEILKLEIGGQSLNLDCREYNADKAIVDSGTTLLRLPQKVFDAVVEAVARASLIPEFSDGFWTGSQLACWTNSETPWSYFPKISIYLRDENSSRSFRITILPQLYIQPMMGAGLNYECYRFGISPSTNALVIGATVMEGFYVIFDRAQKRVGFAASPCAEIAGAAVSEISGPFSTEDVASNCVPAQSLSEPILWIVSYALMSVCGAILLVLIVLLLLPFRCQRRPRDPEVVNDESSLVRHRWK
Source text: as §1, with “assay” for “assay is an APP derived 13 amino acids peptide that”, “the beta-secretase,” for “BACE1,”
Briefly in a 384-well format recombinant BACE2 protein in a final concentration of 0.4 μg/ml is incubated for 450 minutes at room temperature with 10 μM substrate in incubation buffer (50 mM Citrate buffer pH 5.0, 0.05% PEG, no DMSO) in the absence or presence of compound. Next the amount of proteolysis is directly measured by fluorescence measurement at T=0 and T=450 (excitation at 320 nm and emission at 405 nm). Results are expressed in RFU (Relative Fluorescence Units), as difference between T450 and T0.
as §2

Chain of recombinant BACE1 protein (P56817 46-501): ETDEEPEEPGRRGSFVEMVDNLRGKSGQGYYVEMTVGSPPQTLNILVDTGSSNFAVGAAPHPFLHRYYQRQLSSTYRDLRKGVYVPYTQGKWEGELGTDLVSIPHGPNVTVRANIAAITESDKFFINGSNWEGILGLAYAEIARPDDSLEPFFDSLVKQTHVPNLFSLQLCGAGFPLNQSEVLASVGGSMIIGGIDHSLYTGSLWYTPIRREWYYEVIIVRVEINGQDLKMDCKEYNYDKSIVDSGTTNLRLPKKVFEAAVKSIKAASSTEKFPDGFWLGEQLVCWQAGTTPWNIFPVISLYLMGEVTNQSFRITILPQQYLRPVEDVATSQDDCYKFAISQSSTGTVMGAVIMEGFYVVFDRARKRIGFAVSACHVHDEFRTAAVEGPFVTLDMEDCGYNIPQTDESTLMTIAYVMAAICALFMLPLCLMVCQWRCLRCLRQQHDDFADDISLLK

SMILES	IC50 [1] [nM]	IC50 [2] [nM]	IC50 [3] [nM]	IC50 [4] [nM]	melting point [°C]
COc1cnc(C(=O)Nc2ccc(F)c([C@]3(C)Cn4c(cn(C)c4=O)C(N)=N3)c2)cn1 [Compound 5, N-{3-[(6R)-8-amino-2,6-dimethyl-3-oxo-2,3,5,6-tetrahydroimidazo[1,5-a]pyrazin-6-yl]-4-fluorophenyl}-5-methoxypyrazine-2-carboxamide]	9.55	36.3	29.5	100	
C[C@@]1(c2cc(NC(=O)c3ccc(F)cn3)ccc2F)Cn2c(cn(CC(F)(F)F)c2=O)C(N)=N1 [Compound 7, N-{3-[(6R)-8-amino-6-methyl-3-oxo-2-(2,2,2-trifluoroethyl)-2,3,5,6-tetrahydroimidazo[1,5-a]pyrazin-6-yl]-4-fluorophenyl}-5-fluoropyridine-2-carboxamide]	12.3	18.6	16.6	7.41	239.9
COc1cnc(C(=O)Nc2ccc(F)c([C@]3(C)Cn4c(cn(CC(F)(F)F)c4=O)C(N)=N3)c2)cn1 [Compound 11, N-{3-[(6R)-8-amino-6-methyl-3-oxo-2-(2,2,2-trifluoroethyl)-2,3,5,6-tetrahydroimidazo[1,5-a]pyrazin-6-yl]-4-fluorophenyl}-5-methoxypyrazine-2-carboxamide]	8.71	12.3	10	55	280.5
C[C@@]1(c2cc(NC(=O)c3ccc(C#N)cn3)ccc2F)Cn2c(cn(CC(F)(F)F)c2=O)C(N)=N1 [Compound 10, N-{3-[(6R)-8-amino-6-methyl-3-oxo-2-(2,2,2-trifluoroethyl)-2,3,5,6-tetrahydroimidazo[1,5-a]pyrazin-6-yl]-4-fluorophenyl}-5-cyanopyridine-2-carboxamide]	5.62	12.6	10.7	12	235
Cn1cc2n(c1=O)C[C@@](C)(c1cc(NC(=O)c3ccc(F)cn3)ccc1F)N=C2N [Compound 6, N-{3-[(6R)-8-amino-2,6-dimethyl-3-oxo-2,3,5,6-tetrahydroimidazo[1,5-a]pyrazin-6-yl]-4-fluorophenyl}-5-fluoropyridine-2-carboxamide]	15.1	87.1	89.1	13.2	
Cc1cc(C#N)cnc1C(=O)Nc1ccc(F)c([C@]2(C)Cn3c(cn(C)c3=O)C(N)=N2)c1 [Compound 9, N-{3-[(6R)-8-amino-2,6-dimethyl-3-oxo-2,3,5,6-tetrahydroimidazo[1,5-a]pyrazin-6-yl]-4-fluorophenyl}-5-cyano-3-methylpyridine-2-carboxamide]	7.76	38.9	33.1	22.9	
C[C@@]1(c2cc(NC(=O)c3ccc(Cl)cn3)ccc2F)Cn2c(cn(CC(F)(F)F)c2=O)C(N)=N1 [Compound 8, N-{3-[(6R)-8-amino-6-methyl-3-oxo-2-(2,2,2-trifluoroethyl)-2,3,5,6-tetrahydroimidazo[1,5-a]pyrazin-6-yl]-4-fluorophenyl}-5-chloropyridine-2-carboxamide]	4.68	5.62	4.79	6.61	219.9
Cn1cc2n(c1=O)C[C@@](C)(c1cc(-c3cncnc3)ccc1F)N=C2N [Compound 2, (6R)-8-Amino-6-(2-fluoro-5-pyrimidin-5-ylphenyl)-2,6-dimethyl-5,6-dihydro-imidazo[1,5-a]pyrazin-3(2H)-one]	490	1260	1020	7080	239.1
